Experimental data published in article PMC11056982, “Paraptotic Cell Death as an Unprecedented Mode of Action Observed for New Bipyridine-Silver(I) Compounds Bearing Phosphane Coligands” (Journal of Medicinal Chemistry, 2024).
Marks after values point to notes of the source that are not given here.

Assays:
SK-OV-3/CBP = experiment: MTT viability assay in carboplatin-resistant SK-OV-3/CBP cells; type: cell-based, human; conditions: 72 h; for relative resistance (IC50 SK-OV-3/CBP divided by IC50 SK-OV-3): resistant subline vs parental line; for IC50: MTT, carboplatin-resistant subline, mean ± SD
Method: (§1) Cells were seeded (2 × 10^4 cells/well for HCT116, HCT116/OxR, 3 × 10^4 cells/well for HCT116 p53KO, 4 × 10^4 cells/well for MES-OV, SK-OV-3, and their respective CBP resistant counterparts) in 100 μL/well in 96-well plates and allowed to attach for 24 h at 37 °C and 5% CO2. Compounds were first dissolved in DMSO to a 10 mM stock solution and then further diluted in a growth medium (DMSO concentration <1%). After 24 h, cells were treated with 100 μL of different drugs dilutions in triplicates with the final concentrations of 0, 0.01, 0.05, 0.075, 0.1, 0.5, 0.75, 1, 2.5, 5, 7.5, and 10 μM depending on the compound and the cell line.

HCT116 WT/OxR = experiment: MTT viability assay in oxaliplatin-resistant HCT116 WT/OxR cells; type: cell-based, human; conditions: 72 h; for relative resistance (IC50 HCT116 WT/OxR divided by IC50 HCT116 WT): resistant subline vs parental line; for IC50: MTT, oxaliplatin-resistant subline, mean ± SD
Method: as §1

MES-OV/CBP = experiment: MTT viability assay in carboplatin-resistant MES-OV/CBP cells; type: cell-based, human; conditions: 72 h; for relative resistance (IC50 MES-OV/CBP divided by IC50 MES-OV): resistant subline vs parental line; for IC50: MTT, carboplatin-resistant subline, mean ± SD
Method: as §1

MES-OV cells [1] = experiment: Phase-contrast microscopy of cytoplasmic vacuoles; type: cell-based, human; conditions: 6 and 24 h treatment
Method: Cells were seeded 5 × 10^5/well in six-well plates after 24 h recovery treatment with compounds 1, 4, and 7 was performed with the indicated concentrations. After 6 and 24 h, phase-contrast images of the cells were taken with a Zeiss Primovert microscope (20× magnification). To determinate the percentage of vacuolated cells, images (three images each condition) were analyzed by ImageJ, and vacuolated cells were counted.

MES-OV = experiment: MTT viability assay in MES-OV ovarian carcinoma cells; type: cell-based, human; conditions: for cancer cells killed at lowest tested concentration: MES-OV, 0.05 μM; for cancer cells killed at lowest tested concentration / IC50: 72 h; for IC50: MTT, mean ± SD
Method: as §1

recombinant rat TrxR = molecular target: T1, recombinant rat TrxR (Rattus norvegicus, UniProt O89049); experiment: Inhibition of mammalian TrxR (microplate reader-based DTNB assay); type: biochemical; conditions: cell-free assay
T1 construct: purchased Cayman Chemical
T1 sequence (O89049 1-499): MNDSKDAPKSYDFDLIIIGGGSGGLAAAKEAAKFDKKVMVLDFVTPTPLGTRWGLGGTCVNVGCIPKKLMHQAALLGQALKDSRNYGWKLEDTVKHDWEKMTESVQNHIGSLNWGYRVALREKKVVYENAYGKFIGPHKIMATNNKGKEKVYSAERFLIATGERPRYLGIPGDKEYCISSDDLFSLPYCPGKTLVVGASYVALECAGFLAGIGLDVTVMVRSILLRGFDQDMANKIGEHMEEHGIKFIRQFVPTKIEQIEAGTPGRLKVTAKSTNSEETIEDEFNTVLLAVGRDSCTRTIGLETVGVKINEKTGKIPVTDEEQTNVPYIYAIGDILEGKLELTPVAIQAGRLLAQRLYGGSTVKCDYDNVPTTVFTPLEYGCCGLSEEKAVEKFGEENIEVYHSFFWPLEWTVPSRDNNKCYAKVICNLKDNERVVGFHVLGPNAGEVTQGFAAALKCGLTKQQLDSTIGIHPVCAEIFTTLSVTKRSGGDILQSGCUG
Method: To determine the inhibition of mammalian TrxR, an established microplate reader-based assay was performed. For this purpose, commercially available recombinant rat TrxR (from Cayman Chemical) was used and diluted with distilled water to achieve a concentration of 0.12 U mL^–1. The compounds were freshly dissolved as stock solutions in DMSO. Aliquots (25 μL) of the enzyme solution and 25 μL of potassium phosphate buffer (pH 7.0) containing the compounds in graded concentrations (1% DMSO) were mixed. Positive controls were composed of 25 μL aliquots of the enzyme solution mixed with 25 μL 1% DMSO in buffer solution (no compounds). The final concentration of DMSO was 0.5% v/v in all samples. The blank solution was the highest used concentration of the compound in 0.5% DMSO in buffer solution (no enzyme). All resulting solutions were incubated with moderate shaking for 75 min at 37 °C in a 96-well plate. […] After proper mixing, the formation of 2-nitro-5-thiobenzoate (5-TNB) was monitored with a microplate reader at 405 nm 10 times in 35 s intervals for about 6 min. The increase in 5-TNB concentration over time followed a linear trend, and the enzymatic activities were calculated as the slopes (increase in absorbance per second) thereof. […] For the absorption measurements in the enzyme assay, a PerkinElmer 2030 Multilabel Reader VICTORTMX4 was used.

MES-OV cells [2] = experiment: TEM analysis of subcellular morphology; type: cell-based, human; conditions: 24 h treatment
Method: MES-OV Cells were seeded (8 × 10^5 cells/mL) in […] in six-well plates. After 24 h, cells were treated with the selected compounds at the indicated concentration for another 24 h. Afterward, cells were collected, pelleted, and fixed in a solution of 2.5% glutaraldehyde and 2% paraformaldehyde in 0.1 M cacodylate buffer (pH 7.4) for 2 h at room temperature. Samples were subsequently washed 3 × 10 min in cacodylate buffer and postfixed in 1% osmium tetroxide for 1 h. After 3 × 10 min washing in cacodylate buffer, samples were dehydrated in an ethanol series (30–100%, 10 min each) and pure acetone (2 × 10 min) and gradually embedded in Epon 812 resin (Serva). Sections (40–50 nm) were prepared with a Leica UC7 ultramicrotome, mounted on copper mesh grids, and contrasted with 1% uranyl acetate (7 min) and 3% lead citrate (3 min). Imaging was performed with a Tecnai G2 20 transmission electron microscope at 80 kV equipped with an FEI Eagle 4K CCD camera (Center for Anatomy and Cell Biology). Image processing was performed in Fiji[57] using the CLAHE filter (enhance local contrast).

[3] = Stability in PBS by LC-ESI(+)-HRMS/MS; type: physicochemical; conditions: 80 μM in PBS, monitored 48 h
Method: For the stability evaluation in PBS, 10 mM solutions of complexes 1, 4, and 7 were first prepared in DMSO. Two microliters of this solution were then added to PBS (250 μL) for a total concentration of 80 μM. Following centrifugation for 10 min at 3000 rpm, the resulting solutions were monitored by LC-ESI(+)-MS and LC-ESI(+)-HRMS for a period of 48 h.

MES-OV cells [4] = experiment: Mitochondrial membrane potential by JC-1 stain (flow cytometry); type: cell-based, human; conditions: 24 h
Method: Cells were seeded in a density of (2–4) × 10^5 cells/well in six-well plates and in 1 mL culture medium containing 10% FBS. After 24 h recovery, cells were treated with the indicated compounds and concentrations. Next, the supernatant was collected followed by trypsinization of the cells and centrifugation at 300g for 5 min. In the following protocols, cells were stained with annexin V (AV) and propidium iodide (PI) for cell death analysis, with only PI for cell cycle analysis, or with 10 μg mL^–1 JC-1 for evaluation of the mitochondrial membrane potential as previously described.[54],[55]

MES-OV cells [5] = experiment: ROS detection by DCF-DA flow cytometry in MES-OV; type: cell-based, human; conditions: 24 h, 2.5 μM
Method: Cells were seeded 5 × 10^5 cells/mL in six-well plates. After 24 h treatment with the indicated concentration, cells were incubated with 10 μM 2′,7′-dichlorofluorescein diacetate (DCFH-DA, Sigma-Aldrich) in Hank’s balanced salt solution for 1 h at 37 °C. Subsequently, flow cytometry (with BD LSR Fortessa instrument, BD Biosciences, Franklin Lakes, NJ, USA) was performed to measure the median fluorescence signal of 20,000 single cells per sample. FlowJo (BD Biosciences, San Jose, CA, USA) and GraphPad Prism software (GraphPad Software Inc., San Diego, CA, USA) were to analyze the data.

SK-OV-3 = experiment: MTT viability assay in SK-OV-3 ovarian carcinoma cells; type: cell-based, human; conditions: 72 h, mean ± SD of three independent experiments
Method: as §1

HCT116 p53KO = experiment: MTT viability assay in p53-deleted HCT116 p53KO cells; type: cell-based, human; conditions: 72 h, p53-deleted subclone, mean ± SD
Method: as §1

HCT116 WT = experiment: MTT viability assay in HCT116 WT colon carcinoma cells; type: cell-based, human; conditions: 72 h, mean ± SD
Method: as §1

F331 = experiment: MTT viability assay in nonmalignant fibroblasts F331; type: cell-based, human; conditions: 72 h, mean ± SD

Row | IC50 (SK-OV-3/CBP) | IC50 (MES-OV) | IC50 (SK-OV-3) | IC50 (HCT116 WT/OxR) | IC50 (HCT116 p53KO) | IC50 (HCT116 WT) | Molecule | relative resistance (IC50 SK-OV-3/CBP divided by IC50 SK-OV-3) (SK-OV-3/CBP) | relative resistance (IC50 HCT116 WT/OxR divided by IC50 HCT116 WT) (HCT116 WT/OxR) | IC50 (MES-OV/CBP) | IC50 (F331) | further results
1 | – | – | – | – | – | – | Cc1ccnc(-c2cc(C)ccn2)c1.O=S(=O)([O-])C(F)(F)F.[Ag+].c1ccc(P(c2ccccc2)c2ccccc2)cc1 [Compound 2, [Ag(4,4′-CH3-2,2′-bipy)(PPh3)][CF3SO3]] | 1.5^n.s. | 0.9^n.s. | – | – | –
2 | – | – | – | – | – | – | O=S(=O)([O-])C(F)(F)F.OCc1ccnc(-c2cc(CO)ccn2)c1.[Ag+].c1ccc(P(c2ccccc2)c2ccccc2)cc1 [Compound 3, [Ag(4,4′-CH2OH-2,2′-bipy)(PPh3)][CF3SO3]] | 1.4^n.s. | 0.7^n.s. | – | – | relative resistance (IC50 MES-OV/CBP divided by IC50 MES-OV) (MES-OV/CBP): 0.8^n.s.
3 | – | – | – | – | – | – | O=S(=O)([O-])C(F)(F)F.[Ag+].c1ccc(-c2ccccn2)nc1.c1ccc(P(CCP(c2ccccc2)c2ccccc2)c2ccccc2)cc1 [Compound 4, [Ag(2,2′-bipy)(dppe)][CF3SO3]] | 0.8^n.s. | 0.9^n.s. | – | – | cytoplasmic vacuole formation (phase contrast) (MES-OV cells [1]): induced pronounced cytoplasmic vacuoles only after 24 h incubation; cancer cells killed at lowest tested concentration (MES-OV): more than 50%; TrxR inhibition strength relative to 7 (recombinant rat TrxR): 10 fold; vacuole diameter (TEM) (MES-OV cells [2]): 300–1500 nm; stability in PBS [3]: immediate rearrangement of the ligands to afford a mixture between AgP2 and AgN2 species; cells with mitochondrial depolarization (low Δψ fraction) (MES-OV cells [4]; 10 μM): 50%; ROS levels increase (peak) (MES-OV cells [5]): ~5 fold
4 | 5520 ± 2200 nM | < 50 nM | 6500 ± 1660 nM | 540 ± 110 nM | 490 ± 140 nM | 640 ± 60 nM | [Ag(4,4′-CH2OH-2,2′-bipy)(dppe)][CF3SO3] [Compound 6] | 0.8^n.s. | 0.8^n.s. | < 50 nM | > 10000 nM | cancer cells killed at lowest tested concentration (MES-OV): more than 50%
5 | 6500 ± 1290 nM | 60 ± 30 nM | 6860 ± 1550 nM | 750 ± 80 nM | 430 ± 50 nM | 740 ± 60 nM | [Ag(4,4′-CH3-2,2′-bipy)(dppe)][CF3SO3] [Compound 5] | 0.9^n.s. | 1.0^n.s. | 60 ± 30 nM | 8520 ± 900 nM | relative resistance (IC50 MES-OV/CBP divided by IC50 MES-OV) (MES-OV/CBP): 1.0^n.s.
6 | 5970 ± 1420 nM | < 50 nM | – | 380 ± 50 nM | 340 ± 10 nM | 350 ± 40 nM | [Ag(dppe)2][CF3SO3] [Compound 7] | – | 1.1^n.s. | 50 ± 20 nM | 5780 ± 500 nM | cytoplasmic vacuole formation (phase contrast) (MES-OV cells [1]): formation of cytoplasmic vacuoles near the nucleus within the cytoplasm was observed; activity relative to 4 after 24 h (MES-OV; 24 h MTT (Table S2)): about twofold more active than 4; diameter of big vacuoles (TEM) (MES-OV cells [2]): up to 7.5 μm; stability in PBS [3]: stable under these conditions; cells with mitochondrial depolarization (low Δψ fraction) (MES-OV cells [4]; 1 μM): 30%; cells with mitochondrial depolarization (low Δψ fraction) (MES-OV cells [4]; 10 μM): 90%; ROS levels increase (peak) (MES-OV cells [5]): ~5 fold

Row | Molecule | IC50 (SK-OV-3/CBP) | IC50 (MES-OV) | IC50 (SK-OV-3) | IC50 (HCT116 WT/OxR) | IC50 (HCT116 p53KO) | IC50 (HCT116 WT) | relative resistance (IC50 SK-OV-3/CBP divided by IC50 SK-OV-3) (SK-OV-3/CBP) | relative resistance (IC50 HCT116 WT/OxR divided by IC50 HCT116 WT) (HCT116 WT/OxR) | IC50 (MES-OV/CBP) | IC50 (F331) | further results
7 | N.N.O=C([O-])C1(C(=O)[O-])CCC1.[Pt+2] [carboplatin, reference compound] | 89900 ± 5640 nM | 44300 ± 7090 nM | 56500 ± 15400 nM | – | – | – | 1.6* | – | 94700 ± 9240 nM | – | –
8 | O=C1[O][Pt]2([NH][C@@H]3CCCC[C@H]3[NH]2)[O]C1=O [oxaliplatin, reference compound] | – | – | – | > 10000 nM | 2370 ± 450 nM | 720 ± 180 nM | – | >14** | – | – | –
